These results are taken from ChEMBL document CHEMBL5725494, “S1P receptors modulators and their use thereof” (2017).

Sphingosine 1-phosphate receptor 3, sequence (Q99500 whole entry): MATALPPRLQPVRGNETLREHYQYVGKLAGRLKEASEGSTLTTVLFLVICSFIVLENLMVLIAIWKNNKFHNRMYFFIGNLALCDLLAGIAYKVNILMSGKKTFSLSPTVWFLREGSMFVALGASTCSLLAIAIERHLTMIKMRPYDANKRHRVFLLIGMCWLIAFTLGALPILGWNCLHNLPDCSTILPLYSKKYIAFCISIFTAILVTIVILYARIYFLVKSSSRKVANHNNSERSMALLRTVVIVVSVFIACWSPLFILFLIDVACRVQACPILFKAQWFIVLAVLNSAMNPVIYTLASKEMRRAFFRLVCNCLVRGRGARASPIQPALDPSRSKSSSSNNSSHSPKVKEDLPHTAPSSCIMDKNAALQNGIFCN

In one experiment the target is Sphingosine 1-phosphate receptor 1 (Homo sapiens, UniProt P21453). Briefly: (§1) S1P Assay: Selected Compounds of the Examples were evaluated at Millipore Corporation, USA, using S1P1 receptor; [35S]-GTPgamaS binding assay. A [35S]-GTPgamaS binding assay at Millipore was conducted by GPCR Profiler¿ Custom Service Laboratory, Temecula, Calif., Millipore, Inc. to monitor dose-dependent agonist selectivity for selected Examples against the S1P1 receptors. The assay was completed with sample compounds subjected to an eight-point, four-fold dose response curve with starting concentration of 10 μM. Selectivity was determined upon initial addition of compounds followed by a 30 minute incubation at 30° C. Following compound incubation, bounded [35S]-GTPgamaS was determined by filtration and scintillation counting. Independently, selected compounds were evaluated for S1P1 and S1P3 agonistic activity. The S1P1 assay system was GTPgama-S35 binding in membranes from CHO K1 cells, expressing S1P1 human receptor. The S1P3 assay system was calcium mobilization in CHO K1 cells expressing S1P3 human receptor. There was no significant background response to S1P in the CHO K1 cells with either assay. Compounds were tested initially at a concentration of 10 μM. Format: cell membranes.
Sphingosine 1-phosphate receptor 1, sequence (P21453 whole entry): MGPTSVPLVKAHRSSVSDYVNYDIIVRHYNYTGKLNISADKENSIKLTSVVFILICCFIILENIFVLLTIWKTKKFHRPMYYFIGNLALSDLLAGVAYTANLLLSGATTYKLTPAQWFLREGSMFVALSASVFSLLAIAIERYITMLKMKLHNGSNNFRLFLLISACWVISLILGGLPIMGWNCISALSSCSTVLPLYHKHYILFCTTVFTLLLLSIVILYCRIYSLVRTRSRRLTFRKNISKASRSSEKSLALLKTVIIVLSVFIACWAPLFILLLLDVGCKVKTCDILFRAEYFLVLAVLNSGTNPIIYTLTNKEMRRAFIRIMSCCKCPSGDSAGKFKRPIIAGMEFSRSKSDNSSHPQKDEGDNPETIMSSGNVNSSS
On to `COc1ccc(COc2ccc(CN3CC(C(=O)O)C3)cc2)cc1C12CC3CC(CC(C3)C1)C2`, for which the EC50 was determined as 60 nM. Still for that read-out and setting: in the case of `CCOc1ccc(-c2nc(-c3ccc4oc(C(N)(CO)CO)cc4c3)no2)cc1OCC` it was 57 nM; in that of `CCCCCCCCc1ccc(NC(=O)NCCC(=O)O)cc1`, 460 nM.

On to `Cc1ccc(/C=C/c2nc(-c3ccc4oc(C(N)(CO)CO)cc4c3)no2)cc1`, for which the EC50 is 1820 nM.

Regarding `CC(C)N(Cc1ccc(-c2ccc(CN3CC(C(=O)O)C3)cc2)cc1)c1ccc(F)cc1`, the EC50 came out at 600 nM.

Another experiment concerns the target Sphingosine 1-phosphate receptor 3 (Homo sapiens, UniProt Q99500). Described as §1. The format is cell membranes.
Consider `CCOc1ccc(-c2nc(-c3ccc4oc(C(N)(CO)CO)cc4c3)no2)cc1OCC`, for which the EC50 stood at 380 nM.
